#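 Protocol summary: plate cells (96-well), add compound at 5 concentrations, incubate 48 h, interpolate endpoints linearly. Here, GI50 denotes the concentration required for 50% inhibition of growth. TGI marks complete inhibition of growth.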
# How the values were obtained:
# Test in all cases: DTP human tumour cell line panel, 48 h
# PC-3 prostate = system: PC-3 prostate
# NCI-H522 lung = system: NCI-H522 lung
# NCI-H226 lung = system: NCI-H226 lung
# HL-60(TB) leukemia = system: HL-60(TB) leukemia
# UACC-257 melanoma = system: UACC-257 melanoma
# SNB-19 CNS = system: SNB-19 CNS
# HCT-15 colon = system: HCT-15 colon
# OVCAR-3 ovarian = system: OVCAR-3 ovarian
# OVCAR-5 ovarian = system: OVCAR-5 ovarian
# RPMI-8226 leukemia = system: RPMI-8226 leukemia
SMILES,GI50 (PC-3 prostate),TGI (PC-3 prostate),GI50 (NCI-H522 lung),TGI (NCI-H522 lung),GI50 (NCI-H226 lung),TGI (NCI-H226 lung),GI50 (HL-60(TB) leukemia),TGI (HL-60(TB) leukemia),GI50 (UACC-257 melanoma),TGI (UACC-257 melanoma),GI50 (SNB-19 CNS),TGI (SNB-19 CNS),GI50 (HCT-15 colon),TGI (HCT-15 colon),GI50 (OVCAR-3 ovarian),TGI (OVCAR-3 ovarian),GI50 (OVCAR-5 ovarian),TGI (OVCAR-5 ovarian),GI50 (RPMI-8226 leukemia),TGI (RPMI-8226 leukemia)
COc1cc(-c2cc(C(=O)N3CCN(C(=O)c4ccccc4NCc4ccco4)CC3)nc3cc(-c4ccccc4)nn23)cc(OC)c1OC,2.2 µM,> 100 µM,0.859 µM,> 26.5 µM,5.48 µM,> 100 µM,3.7 µM,30.6 µM,3.92 µM,> 100 µM,7.87 µM,> 100 µM,3.4 µM,> 100 µM,1.47 µM,6.27 µM,9.66 µM,> 100 µM,3.61 µM,> 100 µM
COc1ccc(-c2cc(-c3ccc(Nc4nc(Nc5ccc(Cl)cc5)nc(Nc5ccc(Cl)cc5)n4)cc3)nc(N)c2C#N)cc1,0.982 µM,–,1.75 µM,5.53 µM,0.676 µM,1.89 µM,0.866 µM,4.59 µM,1.79 µM,3.63 µM,–,> 24.1 µM,1.54 µM,5.24 µM,1.68 µM,3.18 µM,4.14 µM,24 µM,0.931 µM,> 21.9 µM
Cn1cc(-c2ccc(=O)n(Cc3cccc(-c4ncc(OCCN5CCOCC5)cn4)c3)n2)cn1,49.1 µM,> 100 µM,74.8 µM,> 100 µM,23.5 µM,> 100 µM,74.1 µM,> 100 µM,48.7 µM,> 100 µM,> 87.4 µM,> 100 µM,> 100 µM,> 100 µM,58 µM,> 100 µM,> 100 µM,> 100 µM,34 µM,> 100 µM
CC1(C)N=C(N)N=C(N)N1c1cccc(/C=C/C=C/c2cccc([N+](=O)[O-])c2)c1,0.448 µM,11.8 µM,4.72 µM,20.1 µM,10.9 µM,34.1 µM,2.55 µM,13 µM,5.42 µM,20.2 µM,6.04 µM,22.5 µM,98.1 µM,> 100 µM,1.89 µM,13.1 µM,10.5 µM,42.5 µM,1.31 µM,16.3 µM
Nc1nc(N)[n+]([O-])c(N)c1NCO,–,> 100 µM,–,> 100 µM,–,> 100 µM,–,> 100 µM,–,> 100 µM,–,> 100 µM,–,> 100 µM,–,> 100 µM,–,> 100 µM,–,> 100 µM
CCCCCCCCCCCCCCCCCCNC(=O)[C@H]1CSC(c2ccc(OC)c(F)c2)N1 (stereo partly specified),6.09 µM,28.3 µM,> 29.4 µM,> 51.6 µM,2.28 µM,6.86 µM,1.96 µM,4.65 µM,> 19.9 µM,> 44.1 µM,21.2 µM,> 52.1 µM,> 37.1 µM,> 53.1 µM,7.84 µM,> 50.2 µM,3.55 µM,> 33.4 µM,0.435 µM,1.91 µM
Nc1ccn(C=C=CCO)c(=O)n1,> 1000 µM,> 1000 µM,> 1000 µM,> 1000 µM,> 1000 µM,> 1000 µM,–,435 µM,> 1000 µM,> 1000 µM,> 1000 µM,> 1000 µM,> 1000 µM,> 1000 µM,> 1000 µM,> 1000 µM,> 1000 µM,> 1000 µM,–,> 1000 µM
